Results as given in PubChem BioAssay (NCI).
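Test compounds were applied to cells in 96-well plates for 48 hours at 5 doses. GI50 = concentration required for 50% inhibition of growth. The concentration for full growth arrest is given as TGI.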

Columns and labels:
Experiment in all cases: NCI anticancer screen, dose series, 48 h
DMS 114 small cell lung = system: DMS 114 small cell lung
KM20L2 colon = system: KM20L2 colon
XF 498 CNS = system: XF 498 CNS
SNB-78 CNS = system: SNB-78 CNS
LXFL 529 NSCLC = system: LXFL 529 NSCLC
HOP-18 NSCLC = system: HOP-18 NSCLC
BT-549 breast = system: BT-549 breast
HS 578T breast = system: HS 578T breast

SMILES | TGI (DMS 114 small cell lung) [µM] | TGI (KM20L2 colon) [µM] | TGI (HOP-18 NSCLC) [µM] | TGI (BT-549 breast) [µM] | TGI (HS 578T breast) [µM] | further results
CCCCOCc1cc(CN2CCN(C)CC2)c(O)c2ncccc12 | 23.9 | 73.7 | 39.9 |  |  | TGI (XF 498 CNS): > 100 µM; TGI (SNB-78 CNS): > 100 µM; TGI (LXFL 529 NSCLC): > 100 µM
Cc1ccc(C(O)(c2ccc(C)cc2)c2ccccn2)cc1 | > 100 | > 100 | > 100 |  |  | TGI (SNB-78 CNS): > 100 µM
CC(=O)ON1C(=O)c2cccc3cccc(c23)C1=O |  |  |  | 74.5 | 79.3 | 
C(=N\OCCc1ccccc1)/c1cccnc1 |  |  |  | > 100 | > 100 | 
NCCSCc1ccccc1Cl |  |  |  | > 100 | > 100 | 
Nc1nc2ccc(OCC(O)CN3CCCCC3)cc2[n+]([O-])n1 (centres undefined) |  |  |  | > 100 |  | 
Nc1c(-c2ccccc2[N+](=O)[O-])nc2ccccn12 | > 100 | > 100 |  |  |  | TGI (LXFL 529 NSCLC): > 100 µM
COc1cc(-c2n/c(=C\c3c(O)[nH]c4cc(Cl)ccc34)cc3c2=Nc2ccccc2-3)cc(OC)c1OC |  |  |  | 5.12 | 19 | GI50 (BT-549 breast): 2.25 µM; GI50 (HS 578T breast): 2.51 µM
CC(C)(CCCCC(C)(C)C1NC(=O)N1)C1NC(=O)N1 |  |  |  |  | > 10 | 
c1cncc(O[Si](Oc2cccnc2)(Oc2cccnc2)Oc2cccnc2)c1 | > 100 |  | > 100 |  |  | TGI (XF 498 CNS): > 100 µM; TGI (SNB-78 CNS): > 100 µM
C[CH2][Ge]([CH2]C)([CH2]C)[O]C(=O)CCC(=O)[O][Ge]([CH2]C)([CH2]C)[CH2]C | > 100 | > 100 | > 100 |  |  | GI50 (DMS 114 small cell lung): 38.9 µM; GI50 (KM20L2 colon): > 100 µM; GI50 (XF 498 CNS): > 100 µM; TGI (XF 498 CNS): > 100 µM; GI50 (LXFL 529 NSCLC): 42.5 µM; TGI (LXFL 529 NSCLC): > 100 µM; GI50 (HOP-18 NSCLC): > 100 µM
